Test results reported in patent publication US20180318383A1, “PEPTIDE HAVING NEURONAL LOSS PREVENTION AND REGENERATION EFFECTS, AND COMPOSITION CONTAINING SAME” (GEMVAX & KAEL CO., LTD., priority 2015, published 2018).

Columns and labels:
NSCs [1] = experiment: NSC proliferation (BrdU and CFU assays); type: cell-based, rat; settings: 48 hours, BrdU
Experimental: NSCs were treated with different concentrations of PEP1 and 20 μM Aβ25-30 for 48 hours. Afterward, NSCs were cultured in bromodeoxyuridine (BrdU)-labeled media for 5 hours and observed using a kit. Cell division was evaluated by measuring absorbance at 370 nm and reference absorbance at 492 nm. All results were normalized based on a cell-free well.
A CFU assay was carried out by the following method. Briefly, 0.25×10^5 NSCs were plated in a 6-well plate, and treated with 20 μM Aβ25-30 and then with PEP1 at 1, 10 or 50 μM for 48 hours. The cells were washed with DPBS, and then the medium was exchanged with a fresh cell culture medium. Fourteen days later, the cells were washed again with DPBS, and stained with 0.5% crystal violet dissolved in methanol for 30 minutes at room temperature. Following staining, the plate was washed with DPBS and then dried. The number of colonies was observed using a stereoscopic microscope, and among these colonies, those smaller than 2 mm or faintly stained were removed.

NSCs [2] = experiment: Mitochondria cell membrane potential (JC-1); type: cell-based, rat; settings: 20 μM Aβ25-35 + PEP1 1, 10, 50 μM, 48 hours
Experimental: NSCs were plated in a 96-well plate at a density of 5×10^5 cells/well. The cells were treated with 20 μM Aβ25-30 and each concentration of PEP1 (1, 10 or 50 μM) at 37° C. for 48 hours.
The mitochondria cell membrane potential was measured using a JC-1 mitochondria cell membrane potential observation kit. The mitochondria cell membrane potential was observed using an ELISA reader. […] By observing dead cells or unhealthy cells at an FITC wavelength, it was confirmed that JC-1 is in a monomer state.

[3] = Cell-free ROS production (DHBA level by HPLC); settings: 20 μM Aβ25-35 and PEP1 0, 1, 10, 50 μM
Experimental: To investigate how Aβ25-30 and PEP1 influenced ROS, a DHBA level was measured and observed by a cell-free method. This method was carried out by observing the DHBA level in a tube containing 20 μM Aβ25-30 and each concentration of PEP1 (0, 1, 10 or 50 μM) through HPLC.

β-amyloid = experiment: Expression levels of all types of Aβs in 3XTg-AD mice (western blotting); type: in vivo; settings: hippocampus and whole brain; vs control and Donepezil
Experimental: To test the efficacy of PEP1 on AD, AD transgenic mice (3XTg-AD) were purchased from Jackson Laboratory. Genetic characteristics of the transgenic mice are as follows: B6; 129-Psen1tm1Mpm Tg(APPSwe, tauP301L)1Lfa/Mmjax. […] One week after mice were confirmed as pregnant, new mice were delivered and weaned for 3 weeks. Two weeks later, mature mice were obtained.
During the preliminary breeding and the entire period of the experiment, a temperature was maintained at 23±2° C. and a relative humidity was maintained at 60±10%, and then the mice were raised under a 12-hour dark/light cycle. Experimental animals were divided into five groups, and each group included 10 animals. The divided experimental groups are as follows. […]
The PEP1, physiological saline, donepezil and scramble peptide were subcutaneously injected at each concentration three times a week for two months from the age of 12 months, and then two months after the injection, cognitive/memory behavior tests (passive avoidance test and Y maze test) were performed to examine a degree of improvement in cognitive function and memory function. After the brain was extracted to separate the hippocampus, the amounts of amyloid beta in the hippocampus and the whole brain, and the amounts of an amyloid beta oligomer and NFT generated by tau hyperphosphorylation were determined by western blotting and immunostaining. […]

Sequence: EARPALLTSRLRFIPK (homo sapiens) [PEP1, hTERT-derived peptide consisting of 16 amino acids, telomerase location [611-626]]
- proliferation of NSCs (NSCs [1]; 20 μM Aβ25-35 + PEP1 up to 100 μM, vs 20 μM Aβ25-35 only, CFU): gradually increased
- proliferation (NSCs [1]; NSCs, PEP1 alone 0-200 μM, up to 100 μM): not influenced
- mitochondria cell membrane potential (NSCs [2]): restored the cell membrane potential up to a level in a normal range
- ROS production under a cell-free condition [3]: did not exhibit a significant influence
- expression levels of all types of Aβs (β-amyloid): decreased
